System: HUVECs
Experiment: XTT cytotoxicity test with HUVEC cultures
Format: cell-based, human
Details: 24 h incubation, 10-fold dilution series from 450 μmol/ml
Experimental: Human umbilical vein endothelial cells (HUVEC, pooled donator, Lonza, Switzerland) were cultivated in endothelial growth medium (EGM-2, Lonza, Switzerland) supplemented with 10% of FBS. The exchange of medium was conducted every other day. The cells were used for the experiments between passage 3 and 6.
XTT (2,3-bis(2-methoxy-4-nitro-5-sulfophenyl)-5-[(phenylamino)carbonyl)-2H-tetrazoliumhydroxide) can be reduced to a formazan product in viable cells. The result can be determined by photometric measurements and correlated with the number of viable cells. The assay was conducted based on ISO10993-5.
HUVECs or macrophages were seeded on the polymer disks at a cell number of 10,000 cells/disk in a 96 well plate for 24 h until a confluent cell layer was formed. XTT powder was dissolved in a cell culture medium with 60° C. at a concentration of 1 mg/ml. PMS (phenazine methosulfate, Sigma-Aldrich, USA) was dissolved in PBS at a concentration of 5 mM. For preparing a working solution, which was added to cells, PMS was pipetted into the XTT solution at a concentration of 25 μM. The cells were incubated with 50 μl of this XTT working solution for 4 h at 37° C. in a cell culture incubator. The medium was then transferred to a new 96 well plate, and absorption at 450 nm was measured with a reference wavelength of 620 nm. The results are shown in FIG. 9 as mean values of three determinations. […]

CC(C)(C)NCCNC(C)(C)C [TBEDA, N,N′-di-tert-butylethylenediamine]
Concentration from which the viability of HUVECs was at an acceptable level: 45000 µM
